From ChEMBL document CHEMBL1909046, “DrugMatrix in vitro pharmacology data”

Key:
[1] = DRUGMATRIX: ATPase, Na+/K+ enzyme inhibition (substrate: ATP); type: tissue-based, Sus scrofa, Heart; conditions: Not Active = under 50% inhibition at 10 µM
[2] = DRUGMATRIX: Serotonin (5-Hydroxytryptamine) 5-HT3 radioligand binding (ligand: [3H] GR-65630); type: cell membranes, Membrane; conditions: hek293; Not Active = under 50% inhibition at 10 µM
Carbonic anhydrase 2 = Carbonic anhydrase 2 (Homo sapiens, UniProt P00918); experiment: DRUGMATRIX: Carbonic Anhydrase II enzyme inhibition (substrate: 4-Nitrophenyl acetate (4-NPA)); type: tissue-based, Erythrocyte; conditions: erythrocyte; Not Active = under 50% inhibition at 10 µM
Endothelin-1 receptor = target: T1, Endothelin-1 receptor (Homo sapiens, UniProt P25101); type: cell membranes, CHO-K1, Membrane; conditions: cho-k1; also: in other assays of this panel Not Active means under 50% inhibition at 10 µM
T1 sequence (P25101 whole entry): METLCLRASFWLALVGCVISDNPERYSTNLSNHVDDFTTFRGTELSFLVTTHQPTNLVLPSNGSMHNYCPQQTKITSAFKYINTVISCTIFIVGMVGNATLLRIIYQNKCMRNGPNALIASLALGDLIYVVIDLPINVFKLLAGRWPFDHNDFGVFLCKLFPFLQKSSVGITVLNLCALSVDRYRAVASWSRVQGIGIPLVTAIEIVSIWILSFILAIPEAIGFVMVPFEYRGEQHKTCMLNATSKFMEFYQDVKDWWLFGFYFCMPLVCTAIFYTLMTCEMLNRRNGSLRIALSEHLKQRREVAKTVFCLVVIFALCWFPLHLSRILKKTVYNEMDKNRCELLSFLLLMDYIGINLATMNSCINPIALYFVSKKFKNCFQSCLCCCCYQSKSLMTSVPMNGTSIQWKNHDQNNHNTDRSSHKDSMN

[3] = target: Platelet-activating factor receptor (Homo sapiens, UniProt P25105); experiment: biochemical; type: tissue-based; conditions: platelet; also: in other assays of this panel Not Active means under 50% inhibition at 10 µM
Cytochrome P450 2C19 = Cytochrome P450 2C19 (Homo sapiens, UniProt P33261); conditions: bti-tn-5b1-4; also: in other assays of this panel Not Active means under 50% inhibition at 10 µM
[4] = target: Voltage-gated inwardly rectifying potassium channel KCNH2 (Homo sapiens, UniProt Q12809); conditions: hek293; also: in other assays of this panel Not Active means under 50% inhibition at 10 µM
Chain of Voltage-gated inwardly rectifying potassium channel KCNH2 (Q12809 whole entry): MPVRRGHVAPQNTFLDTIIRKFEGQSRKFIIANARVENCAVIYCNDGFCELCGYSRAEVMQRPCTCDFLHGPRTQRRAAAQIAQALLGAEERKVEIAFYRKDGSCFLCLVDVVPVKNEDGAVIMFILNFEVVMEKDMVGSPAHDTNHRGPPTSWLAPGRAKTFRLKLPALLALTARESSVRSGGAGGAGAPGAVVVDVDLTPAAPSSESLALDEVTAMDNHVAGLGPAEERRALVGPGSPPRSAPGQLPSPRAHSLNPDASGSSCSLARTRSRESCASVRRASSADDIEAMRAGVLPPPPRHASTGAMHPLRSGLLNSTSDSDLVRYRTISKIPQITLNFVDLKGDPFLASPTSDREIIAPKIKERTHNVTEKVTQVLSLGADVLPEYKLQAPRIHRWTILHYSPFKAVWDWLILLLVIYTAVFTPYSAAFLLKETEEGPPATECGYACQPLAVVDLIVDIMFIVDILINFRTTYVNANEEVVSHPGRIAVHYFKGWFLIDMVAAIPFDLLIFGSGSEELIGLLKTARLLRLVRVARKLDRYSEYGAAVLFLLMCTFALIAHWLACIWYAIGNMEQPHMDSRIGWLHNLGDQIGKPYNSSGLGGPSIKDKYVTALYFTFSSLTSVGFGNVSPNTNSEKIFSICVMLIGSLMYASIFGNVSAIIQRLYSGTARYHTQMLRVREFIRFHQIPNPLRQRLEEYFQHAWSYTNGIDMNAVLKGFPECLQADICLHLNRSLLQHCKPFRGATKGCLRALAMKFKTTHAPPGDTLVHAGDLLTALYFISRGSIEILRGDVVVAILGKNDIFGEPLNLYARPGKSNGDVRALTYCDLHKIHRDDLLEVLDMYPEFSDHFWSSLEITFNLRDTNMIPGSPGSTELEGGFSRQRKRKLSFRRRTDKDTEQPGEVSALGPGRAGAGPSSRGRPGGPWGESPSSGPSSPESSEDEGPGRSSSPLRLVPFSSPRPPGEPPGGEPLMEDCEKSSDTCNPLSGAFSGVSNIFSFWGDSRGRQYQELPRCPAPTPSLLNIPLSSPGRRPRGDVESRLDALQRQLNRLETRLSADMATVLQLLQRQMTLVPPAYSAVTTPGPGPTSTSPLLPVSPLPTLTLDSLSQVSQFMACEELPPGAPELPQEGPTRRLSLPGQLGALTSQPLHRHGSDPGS

Chain of Platelet-activating factor receptor (P25105 whole entry): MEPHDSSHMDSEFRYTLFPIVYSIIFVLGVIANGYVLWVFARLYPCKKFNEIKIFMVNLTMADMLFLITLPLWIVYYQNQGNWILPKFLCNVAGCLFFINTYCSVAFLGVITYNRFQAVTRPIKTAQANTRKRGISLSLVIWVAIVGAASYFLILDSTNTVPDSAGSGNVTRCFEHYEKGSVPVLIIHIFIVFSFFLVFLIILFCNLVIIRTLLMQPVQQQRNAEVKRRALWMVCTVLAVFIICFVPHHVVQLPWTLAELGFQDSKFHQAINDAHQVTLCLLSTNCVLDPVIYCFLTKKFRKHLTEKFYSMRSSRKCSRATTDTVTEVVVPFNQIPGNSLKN
Chain of Cytochrome P450 2C19 (P33261 whole entry): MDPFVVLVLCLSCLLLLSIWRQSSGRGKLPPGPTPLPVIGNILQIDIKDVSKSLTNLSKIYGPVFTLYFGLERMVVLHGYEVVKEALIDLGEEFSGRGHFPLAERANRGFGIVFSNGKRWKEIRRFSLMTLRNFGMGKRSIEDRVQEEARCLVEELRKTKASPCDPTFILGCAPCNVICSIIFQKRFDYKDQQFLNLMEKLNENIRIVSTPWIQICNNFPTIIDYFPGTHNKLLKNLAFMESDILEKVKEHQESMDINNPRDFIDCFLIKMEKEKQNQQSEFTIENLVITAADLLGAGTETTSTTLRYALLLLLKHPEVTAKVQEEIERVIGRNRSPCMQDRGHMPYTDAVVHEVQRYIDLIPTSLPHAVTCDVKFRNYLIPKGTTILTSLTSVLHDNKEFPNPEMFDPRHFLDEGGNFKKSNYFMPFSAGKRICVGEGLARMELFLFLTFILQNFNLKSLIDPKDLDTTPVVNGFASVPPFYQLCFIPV

CC(=O)O[C@H]1C[C@@H]2CC[C@@H]3[C@H](CC[C@@]4(C)[C@H]3C[C@H]([N+]3(C)CCCCC3)[C@@H]4OC(C)=O)[C@@]2(C)C[C@@H]1N1CCCCC1.[Br-] [VECURONIUM BROMIDE]
Not Active: IC50 [1] | Ki [1] | IC50 [2] | Ki [2] | IC50 (Carbonic anhydrase 2) | IC50 (Endothelin-1 receptor) | IC50 [3] | IC50 (Cytochrome P450 2C19) | Ki (Cytochrome P450 2C19) | IC50 [4] | Ki [4]

Nc1ccc(S(=O)(=O)Nc2nccs2)cc1 [SULFATHIAZOLE]
Not Active: IC50 [1] | Ki [1] | IC50 [2] | Ki [2] | IC50 (Carbonic anhydrase 2) | IC50 (Endothelin-1 receptor) | IC50 [3] | IC50 (Cytochrome P450 2C19) | Ki (Cytochrome P450 2C19) | IC50 [4] | Ki [4]

O=C(O)C(Cl)(Cl)Cl [TRICHLOROACETIC ACID]
Not Active: IC50 [1] | Ki [1] | IC50 [2] | Ki [2] | IC50 (Carbonic anhydrase 2) | IC50 (Endothelin-1 receptor) | IC50 [3] | IC50 (Cytochrome P450 2C19) | Ki (Cytochrome P450 2C19) | IC50 [4] | Ki [4]

COc1cc(N)nc2[nH]c(-c3ccc(F)cc3)c(-c3ccncc3)c12
Not Active: IC50 [1] | Ki [1] | IC50 [2] | Ki [2] | IC50 (Carbonic anhydrase 2) | IC50 (Endothelin-1 receptor) | IC50 [3] | IC50 (Cytochrome P450 2C19) | Ki (Cytochrome P450 2C19) | IC50 [4] | Ki [4]

THIMEROSAL
Not Active: IC50 [1] | Ki [1] | IC50 [2] | Ki [2] | IC50 (Carbonic anhydrase 2) | Ki (Carbonic anhydrase 2) | IC50 (Endothelin-1 receptor) | Ki (Endothelin-1 receptor) | IC50 [3] | Ki [3] | IC50 (Cytochrome P450 2C19) | Ki (Cytochrome P450 2C19) | IC50 [4] | Ki [4]

CNS(=O)(=O)Cc1ccc2[nH]cc(CCN(C)C)c2c1
Not Active: IC50 [1] | Ki [1] | IC50 [2] | Ki [2] | IC50 (Carbonic anhydrase 2) | IC50 (Endothelin-1 receptor) | IC50 [3] | IC50 (Cytochrome P450 2C19) | Ki (Cytochrome P450 2C19) | IC50 [4] | Ki [4]

C[C@@H]1C[C@H]2[C@@H]3CCC4=CC(=O)C=C[C@]4(C)C3=CC[C@]2(C)[C@H]1C(=O)CN1CCN(c2cc(N3CCCC3)nc(N3CCCC3)n2)CC1 [TIRILAZAD]
Not Active: IC50 [1] | Ki [1] | IC50 [2] | Ki [2] | IC50 (Carbonic anhydrase 2) | IC50 (Endothelin-1 receptor) | IC50 [3] | IC50 (Cytochrome P450 2C19) | Ki (Cytochrome P450 2C19) | IC50 [4] | Ki [4]

NC[C@H]1O[C@H](O[C@H]2[C@H](O)[C@@H](O[C@H]3O[C@H](CO)[C@@H](O)[C@H](N)[C@H]3O)[C@H](N)C[C@@H]2N)[C@H](N)C[C@@H]1O [TOBRAMYCIN]
Not Active: IC50 [1] | Ki [1] | IC50 [2] | Ki [2] | IC50 (Carbonic anhydrase 2) | IC50 (Endothelin-1 receptor) | IC50 [3] | IC50 (Cytochrome P450 2C19) | Ki (Cytochrome P450 2C19) | IC50 [4] | Ki [4]

O=P(O)(O)C(O)(Cc1cccnc1)P(=O)(O)O [RISEDRONIC ACID]
Not Active: IC50 [1] | Ki [1] | IC50 [2] | Ki [2] | IC50 (Carbonic anhydrase 2) | IC50 (Endothelin-1 receptor) | IC50 [3] | IC50 (Cytochrome P450 2C19) | Ki (Cytochrome P450 2C19) | IC50 [4] | Ki [4]
